Assay results as given in patent publication US10525055B2, “Opioid receptor antagonist prodrugs” (Nirsum Laboratories, Inc., priority 2017, dated 2020).

Legend:
[1] = Plasma stability assay, rat plasma; format: in vitro ADME; conditions: 37° C., 10 μM
[2] = Plasma stability assay, dog plasma; format: in vitro ADME; conditions: 37° C., 2 μM; for % remaining at time point in minutes, 15 min: 15 min (as headed); for % remaining at time point in minutes, 120 min: 120 min (as headed); for % remaining at time point in minutes, 480 min: 480 min (as headed); for % remaining at time point in minutes, 1440 min: 1440 min (as headed)
Procedure: (§1) Plasma stability determination of the test compounds in rat, dog, cynomolgus monkey and human plasma is performed using HPLC-MS. For rat, incubations are carried out in 96-well polypropylene plates in 5 aliquots of 70 μL each (one for each time point). […] Five time points are analyzed (0, 15, 120, 480 and 1440 min). […] All incubations are performed in duplicates. The samples are analyzed by HPLC-MS. The percentage of parent compound remaining after incubation in plasma is determined.

[3] = Liver S9 fraction stability, dog; format: in vitro ADME; conditions: 1.0 mg/ml S9 protein, 2 μM, 37° C.
Procedure: (§2) Liver S9 fraction stability determination of the test compounds in dog, cynomolgus monkey and human is performed using HPLC-MS. Test compound (2 μM, 0.1% DMSO, 1% Methanol final concentration) was assessed for stability in a 50 μl phosphate buffer containing 1.0 mg/ml S9 protein from each of the three species and 5 mM D-saccharic acid-1, 4-lactone. Samples were incubated at 37° C. for 60 minutes and the % compound remaining was assessed.

[4] = Plasma stability assay, human plasma; format: in vitro ADME; conditions: 37° C., 2 μM; for % remaining at time point in minutes, 15 min: 15 min (as headed); for % remaining at time point in minutes, 120 min: 120 min (as headed); for % remaining at time point in minutes, 480 min: 480 min (as headed); for % remaining at time point in minutes, 1440 min: 1440 min (as headed)
Procedure: as §1

[5] = Liver S9 fraction stability, human; format: in vitro ADME; conditions: 1.0 mg/ml S9 protein, 2 μM, 37° C.
Procedure: as §2

[6] = Liver S9 fraction stability, monkey; format: in vitro ADME, cynomolgus monkey; conditions: 1.0 mg/ml S9 protein, 2 μM, 37° C.
Procedure: as §2

[7] = Plasma stability assay, monkey plasma; format: in vitro ADME, cynomolgus monkey; conditions: 37° C., 2 μM; for % remaining at time point in minutes, 15 min: 15 min (as headed); for % remaining at time point in minutes, 120 min: 120 min (as headed); for % remaining at time point in minutes, 480 min: 480 min (as headed); for % remaining at time point in minutes, 1440 min: 1440 min (as headed)
Procedure: as §1

[8] = Rat pharmacokinetic studies, intramuscular; format: in vivo, male Sprague Dawley Rats; conditions: rat IM, Sesame oil + 1% Benzyl Alcohol
Procedure: The purpose of this study is to determine the pharmacokinetics of test compounds in plasma, following intramuscular administration to male Sprague Dawley Rats (n=3, unless otherwise specified).
The dose formulation of 400 mg base equivalents/ml in sesame oil+1% benzyl alcohol (unless otherwise specified) was administered by intramuscular injection. The dose volume was determined by the animals' body weight determined on the morning of dosing day.
Each collected blood sample was centrifuged for 4 minutes at 4° C. and 10000 rpm for plasma collection. Plasma was collected and transferred into a pre-labeled PP tube in dry ice at each time point and precipitated immediately using ACN at a ratio of 1:4 (plasma:ACN). Centrifuged again (10 minutes, 12000 rpm) and obtain the supernatant.
After terminal collection, all supernatant was stored at approximately −80° C. until bioanalysis.
LC-MS/MS methods for the quantitative determination of test compound in biological matrix were developed. […] The sample analysis was performed concurrently with a set of calibration standards and two sets of QC samples using the LC-MS/MS method.
Plasma concentration versus time data was analyzed by non-compartmental approaches using the Phoenix WinNonlin 6.3 software program. Cmax, Tmax, T1/2, AUC(0-t), AUC(0-inf), MRT(0-t), MRT(0-inf) and graphs of plasma concentration versus time profile were prepared.

[9] = Dog pharmacokinetic studies, deep intramuscular; format: in vivo, Beagle dogs; conditions: dog IM, Sesame oil + 1% Benzyl Alcohol
[10] = Solubility determination in oil (cottonseed oil, sesame oil); conditions: Sesame oil
Procedure: A known amount of test substance (˜40 mg) was weighed into the vial, 100 μL of oil was added and heated to 60° C. and then system was slurried to reach equilibrium. […] Extra oil was added into the vial once compound precipitated out and then the system was re-equilibrated at 1000 rpm at room temperature (25° C.). Final concentration was determined by HPLC method as described below in Table 6a and 6b.

| Structure (SMILES) | % remaining at time point in minutes, 0 min [1] | % remaining at time point in minutes, 15 min [1] | % remaining at time point in minutes, 0 min [2] | % remaining at time point in minutes, 15 min [2] | % remaining at time point in minutes, 120 min [2] | % remaining at time point in minutes, 480 min [2] | % remaining at time point in minutes, 1440 min [2] | Liver S9 Fraction Stability % remaining at 60 minutes, Dog [3] | % remaining at time point in minutes, 0 min [4] | % remaining at time point in minutes, 15 min [4] | % remaining at time point in minutes, 120 min [4] | % remaining at time point in minutes, 480 min [4] | % remaining at time point in minutes, 1440 min [4] | Liver S9 Fraction Stability % remaining at 60 minutes, Human [5] | Liver S9 Fraction Stability % remaining at 60 minutes, Monkey [6] | % remaining at time point in minutes, 0 min [7] | % remaining at time point in minutes, 15 min [7] | % remaining at time point in minutes, 120 min [7] | % remaining at time point in minutes, 480 min [7] | % remaining at time point in minutes, 1440 min [7] | further results |
| --- | --- | --- | --- | --- | --- | --- | --- | --- | --- | --- | --- | --- | --- | --- | --- | --- | --- | --- | --- | --- | --- |
| CCCCCCCCCCCC(=O)OCN1C(=O)CCc2ccc(OCCCCN3CCN(c4cccc(Cl)c4Cl)CC3)cc21 [Aripiprazole lauroxil, reference compound] | 100% | 84% | 100% | 103% | 81.3% | 78.6% | 74.3% | 66.1% | 100% | 99.7% | 80% | 73.2% | 75.5% | 47.8% | 56.6% | 100% | 95.2% | 94.5% | 75.5% | 83.2% | % remaining at time point in minutes, 120 min [1]: 85.5%; % remaining at time point in minutes, 480 min [1]: 76.4%; % remaining at time point in minutes, 1440 min [1]: 46% |
| C=C1CC[C@@]2(O)C3Cc4ccc(OC(=O)CCCCCCC/C=C/CCCCCCCC)c5c4[C@@]2(CCN3CC2CC2)[C@H]1O5 [Compound 15, (4aS,7aS,12bS)-3-(cyclopropylmethyl)-4a-hydroxy-7-methylene-2,3,4,4a,5,6,7,7a-octahydro-1H-4,12-methanobenzofuro[3,2-e]isoquinolin-9-yl (E)-octadec-9-enoate] | 100% | 72% | 100% | 82.5% | 80.6% | 90.1% | 86.1% | 80.9% | 100% | 83.3% | 82.5% | 107.1% | 109.0% | 59.8% | 76.7% | 100% | 74.5% | 72.7% | 80.6% | 76.5% | % remaining at time point in minutes, 120 min [1]: 69.3%; % remaining at time point in minutes, 480 min [1]: 52%; % remaining at time point in minutes, 1440 min [1]: 35%; AUC0-inf (ng · h/mL) prodrug ([8]; 80 mg/kg): 679 ng·h/mL; AUC0-inf (ng · h/mL) prodrug ([8]; 123 mg/kg): 2574 ng·h/mL; AUC0-inf (ng · h/mL) prodrug ([8]; 165 mg/kg): 2789 ng·h/mL; Half-life t1/2 (hour) prodrug ([8]; 165 mg/kg): 500 h; AUC0-inf (ng · h/mL) prodrug ([9]; 30 mg/kg): 521 ng·h/mL; Half-life t1/2 (hour) prodrug ([9]; 30 mg/kg): 134 h; AUC0-inf (ng · h/mL) prodrug ([9]; 48 mg/kg): 1144 ng·h/mL; Half-life t1/2 (hour) prodrug ([9]; 48 mg/kg): 518 h; AUC0-inf (ng · h/mL) prodrug ([9]; 96 mg/kg): 1353 ng·h/mL; Half-life t1/2 (hour) prodrug ([9]; 96 mg/kg): 162 h; Approximate Solubility (mg/mL) in Excipient: Sesame oil ([10]; heating temp. 40 °C, obs. temp. 40 °C): <52 mg/mL; Approximate Solubility (mg/mL) in Excipient: Sesame oil ([10]; heating temp. 60 °C, obs. temp. 25 °C): >396.5 mg/mL |
| CCCCCCCCCCCCCCCC(=O)OC1CCCn2c1nc(C)c(CCN1CCC(c3noc4cc(F)ccc34)CC1)c2=O (stereo not shown) [Paliperidone palmitate, reference compound] | – | – | 100% | 91.2% | 88.4% | 95.9% | 93.1% | 56.4% | 100% | 103.7% | 97.6% | 109.1% | 104.1% | 47.8% | 57.4% | 100% | 92% | 89.5% | 98.4% | 92.5% | – |
